Data: patent US20210177982A1, “MUCUS-PENETRATING PEPTIDES, DELIVERY VEHICLES AND METHODS OF THERAPY” (DNALite Therapeutics, Inc., priority 2018, published 2021)
Ends that are not written are not given here.

Tests used:
[1] = system: mucin from porcine stomach; test: Peptide mucin interaction assay (dynamic light scattering); assay type: binding; conditions: peptide conjugated to DSPE-PEG2k-DBCO at 0.08% mol on MVL5/DOPC/Chol base system with DNA; 0.5 mg/mL mucin, sample:mucin 5:2
Protocol: DSPE-PEG2k-DBCO (Avanti Polar Lipids) was hydrated in water and agitated to form a transparent solution. Synthesized peptides with a lysine containing an azide on the N-terminus were conjugated to it. 2.5× moles of the azide peptides were added to the lipid mix and were left to react overnight. 10× moles of sodium azide were added to the reaction to quench it.
Thin film hydration was used to make a lipid base system composed of MVL5/DOPC/Chol (30/60/10% mol). Briefly, the lipids were dissolved in chloroform: methanol (9:1) and mixed. The lipids were then dried using a rotovap and hydrated in a HEPES-glucose buffer (10 mM HEPES, 230 mM Glucose, pH 7.4) for a final concentration of 1 mM. The lipid suspension was extruded through a 200 nm pore size filter for 20 passes using the NanoSizer MINI (T&T Scientific Corporation, Tennessee). An appropriate amount of DNA was added to the lipid base system for a charge ratio of +3 (assuming MVL5 has a charge ratio of +3 at neutral pH) and the solution was mixed thoroughly and let rest for 20 min. DSPE-PEG2k-DBCO conjugated peptides were added to the base system for a final lipid concentration of 0.08% mol. DSPE-SS-PEG2k was added to the base system for a final lipid concentration of 5% mol. The solutions were incubated for 1 h at 60° C.
For each sample, purified 0.5 mg/mL mucin from porcine stomach (Sigma Aldrich) was added to the sample at a sample:mucin volume ratio of 5:2. Dynamic light scattering was used to measure changes in light scattering in the presence of and without mucin for each sample. […] Thus SEQ ID NO. […] Thus SEQ ID NO. […] Thus SEQ ID NO. […] 4 conjugated systems, where peak shifting was not observed in the presence of mucin. Thus SEQ ID NO. […] 5 conjugated systems where peak shifting was not observed in the presence of mucin. Thus SEQ ID NO. […] 6 conjugated systems where peak shifting was not observed in the presence of mucin. Thus SEQ ID NO. […] FIG. 11 show SEQ ID NO. 7 conjugated systems where peak shifting was not observed in the presence of mucin. Thus SEQ ID NO. […] Thus SEQ ID NO. […] Thus SEQ ID NO. […] Thus, SEQ ID NO. […] Thus SEQ ID NO. […] FIG. 16 show SEQ ID NO. […] Thus SEQ ID NO.

[2] = pH 7 (No salt); cited from earlier work
[3] = 25° C., RP-HPLC, Ac-X-G-A-K-G-A-G-V-G L-amide; cited from earlier work

| Molecule | interaction with mucin (shift in DLS light intensity peak) [1] | Fauchere Score [2] | ΔtR(Gly), pH 2, 20 mM H3PO4 [3] | ΔtR(Gly), pH 2, 20 mM TFA [3] | ΔtR(Gly), pH 5, 10 mM PO4 Buffer [3] | ΔtR(Gly), pH 7, 10 mM PO4 Buffer +50 mM NaCl [3] | ΔtR(Gly), pH 7, 10 mM PO4 Buffer +50 mM NaClO4 [3] | ΔtR(Gly), pH 7, 10 mM PO4 Buffer, No Salt [3] |
| --- | --- | --- | --- | --- | --- | --- | --- | --- |
| QAASRVENYMHR [SEQ ID NO. 6] | found not to interact with mucin | – | – | – | – | – | – | – |
| ADDLENVNEGMRIH [SEQ ID NO. 21] | found to not be mucin interacting | – | – | – | – | – | – | – |
| HPGSPFPPEHRP [SEQ ID NO. 12] | found to be interacting with mucin | – | – | – | – | – | – | – |
| EPDNWSLDFPRR [SEQ ID NO. 8] | found to interact with mucin | – | – | – | – | – | – | – |
| RQWVGDRA [SEQ ID NO. 17] | found to be mucin interacting | – | – | – | – | – | – | – |
| C[C@@H](O)[C@H](N)C(=O)O [Thr] | – | 0.260 | 2.8 | 2.3 | 2.8 | 4.1 | 2.5 | 3.9 |
| NCC(=O)O [Gly, Glycine] | – | 0 | 0.0 | 0.0 | 0.0 | 0.0 | 0.0 | 0.0 |
| N[C@@H](CCC(=O)O)C(=O)O [Glu] | – | −0.640 | 3.6 | 2.8 | −0.5 | −0.4 | −7.1 | −0.9 |
| NC(=O)CC[C@H](N)C(=O)O [Gln] | – | −0.220 | 0.5 | 0.6 | 0.6 | 1.6 | 0.0 | 0.5 |
| N[C@@H](Cc1c[nH]cn1)C(=O)O [His] | – | 0.130 | −7.0 | 0.0 | −5.1 | 4.7 | 3.4 | 3.4 |
| RWQVGDRADGE [SEQ ID NO. 19] | found to be mucin interacting | – | – | – | – | – | – | – |
| LSTAADMQGVVTDGMASGLDKDYLKPDD [SEQ ID NO. 22] | found to not interact with mucin | – | – | – | – | – | – | – |
| CSCC[C@H](N)C(=O)O [Met] | – | 1.230 | 16.1 | 15.7 | 16.4 | 17.3 | 16.8 | 16.3 |
| YPYDANHTRSPT (not fully specified (N-terminus)) [SEQ ID NO. 10] | found to be interacting with mucin | – | – | – | – | – | – | – |
| KTIEAHPPYYAS [SEQ ID NO. 7] | found not to interact with mucin | – | – | – | – | – | – | – |
| NCCCC[C@H](N)C(=O)O [Lys] | – | −0.990 | −7.0 | 2.8 | −3.7 | −2.0 | 3.4 | −1.1 |
| CCCC[C@H](N)C(=O)O [n-Leu, norleucine] | – | – | 24.6 | 24.6 | 25.6 | 25.9 | 26.6 | 25.6 |
| RQSAGVLGFAPTNIDDTSFHA [SEQ ID NO. 16] | found to be mucin interacting | – | – | – | – | – | – | – |
| N[C@@H](Cc1ccccc1)C(=O)O [Phe] | – | 1.79 | 29.1 | 29.1 | 30.1 | 30.1 | 30.8 | 29.9 |
| TSHTDAPPARSP [SEQ ID NO. 34] | found to be mucin interacting | – | – | – | – | – | – | – |
| MATKGGTVKA [SEQ ID NO. 1] | found not to interact with mucin | – | – | – | – | – | – | – |

| Molecule | interaction with mucin (shift in DLS light intensity peak) [1] | Fauchere Score [2] | ΔtR(Gly), pH 2, 20 mM H3PO4 [3] | ΔtR(Gly), pH 2, 20 mM TFA [3] | ΔtR(Gly), pH 5, 10 mM PO4 Buffer [3] | ΔtR(Gly), pH 7, 10 mM PO4 Buffer +50 mM NaCl [3] | ΔtR(Gly), pH 7, 10 mM PO4 Buffer +50 mM NaClO4 [3] | ΔtR(Gly), pH 7, 10 mM PO4 Buffer, No Salt [3] |
| --- | --- | --- | --- | --- | --- | --- | --- | --- |
| N[C@@H](CS)C(=O)O [Cys] | – | – | 8.1 | 7.6 | 7.9 | 9.1 | 8.2 | 8.3 |
| NIENSTLATPLS [SEQ ID NO. 32] | found to be mucin interacting | – | – | – | – | – | – | – |
| STSTVSTPVPPPVDDTTWLQSAS [SEQ ID NO. 15] | found to be mucus interacting | – | – | – | – | – | – | – |
| RQSAGVL [SEQ ID NO. 14] | lack of interaction with mucin | – | – | – | – | – | – | – |
| CC(C)[C@H](N)C(=O)O [Val] | – | 1.220 | 13.8 | 13.4 | 14.0 | 15.0 | 14.6 | 14.4 |
| N=C(N)NCCC[C@H](N)C(=O)O [Arg] | – | −1.010 | −5.0 | 0.6 | −3.7 | 4.1 | 6.4 | 3.9 |
| CC[C@H](C)[C@H](N)C(=O)O [Ile] | – | 1.8 | 21.3 | 21.4 | 22.2 | 22.8 | 23.0 | 22.4 |
| TSHTDAPPARSP [SEQ ID NO. 13] | found to be interacting with mucin | – | – | – | – | – | – | – |
| NC(=O)C[C@H](N)C(=O)O [Asn] | – | −0.600 | 0.0 | −0.6 | 0.0 | 1.0 | 30.8 | 0.5 |
| NYTTYKSHFQDR [SEQ ID NO. 9] | found to interact with mucin | – | – | – | – | – | – | – |
| N[C@@H](CO)C(=O)O [Ser] | – | – | 0.0 | 0.0 | 0.0 | 1.2 | 30.5 | 0.5 |
| NSGTMQSASRAT [SEQ ID NO. 5] | found not to interact with mucin | – | – | – | – | – | – | – |
| TPKTMTQTYDFS [SEQ ID NO. 4] | found not to interact with mucin | – | – | – | – | – | – | – |
| MAKPAQGAKY [SEQ ID NO. 2] | found to interact with mucin | – | – | – | – | – | – | – |
| PSSSSSSRIGDP [SEQ ID NO. 23] | found to be mucin interacting | – | – | – | – | – | – | – |
| CCC[C@H](N)C(=O)O [n-Val, norvaline] | – | – | 15.4 | 15.2 | 15.9 | 16.9 | 16.8 | 16.3 |
| DATDRFHGPDAL [SEQ ID NO. 26] | found to be mucin interacting | – | – | – | – | – | – | – |
| DPVDTPNPTRRKPGK [SEQ ID NO. 24] | found to be mucin interacting | – | – | – | – | – | – | – |
| MSVTGGKMAP [SEQ ID NO. 3] | found to be interacting with mucin | – | – | – | – | – | – | – |
| LIIYRDLISH [SEQ ID NO. 36, reference compound] | disappearance of the system peak was observed demonstrating mucin interaction | – | – | – | – | – | – | – |
| VGDDSGGFSTTVSTEQNVPDPQV [SEQ ID NO. 20] | not found to be mucin interacting | – | – | – | – | – | – | – |
